Reference: patent publication US5637584A, “Solvate of olanzapine” (Eli Lilly and Company, priority 1995, dated 1997)

What was measured:
[1] = tested on: apomorphine-induced climbing behavior; assay: apomorphine-induced climbing behavior in mice; type: in vivo
Description: (§1) The Form I olanzapine prepared by the process of this invention has useful central nervous system activity. […] For example, the anhydrous Form I compound has been assessed in a number of standard behavior tests predictive of antipsychotic activity. The claimed compound antagonised apomorphine-induced climbing behavior and hypothermia in mice. See Moore, N. A. et al Psychopharmacology 94 (2), 263-266 (1988).

[2] = tested on: apomorphine-induced hypothermia; assay: apomorphine-induced hypothermia in mice; type: in vivo
Description: as §1

[3] = tested on: conditioned avoidance response; assay: conditioned avoidance response in rats; type: in vivo
[4] = tested on: catalepsy; assay: induction of catalepsy; type: in vivo; conditions: compared with doses required to block conditioned avoidance response
[5] = tested on: 5-HT2B receptor; assay: 5-HT2B receptor activity
[6] = stability of the anhydrous polymorph; type: physicochemical; conditions: suitability for pharmaceutical formulations
[7] = detection of radiolabelled compound in saliva; type: in vivo
Method: The anhydrous Form I 2-methyl-4-(4-methyl-1-piperazinyl)-10H-thieno-[2,3-b][1,5]benzodiazepine compound is effective over a wide dosage range, the actual dose administered being dependent on the condition being treated. For example, in the treatment of adult humans, dosages of from 0.25 to 30 mg, preferably from 1 to 20 mg, per day may be used. A once a day dosage is normally sufficient, although divided doses may be administered. For treatment of central nervous system disorders, a dose range of from 1 to 30 mg, preferably 2.5 to 20 mg per day is suitable.

Compound	antagonism of apomorphine-induced climbing behavior [1]	antagonism of apomorphine-induced hypothermia [2]	inhibition of conditioned avoidance response [3]	induction of catalepsy [4]	5-HT2B receptor activity [5]	stability of crystal form [6]	detection in saliva [7]
Cc1cc2c(s1)Nc1ccccc1N=C2N1CCN(C)CC1 [anhydrous Form I olanzapine, 2-methyl-4-(4-methyl-1-piperazinyl)-10H-thieno[2,3-b][1,5]benzodiazepine]	antagonised	antagonised	inhibits	induces cataleptsy only at higher doses	5-HT2B receptor activity	stable	–
Cc1cc2c(s1)Nc1ccccc1N=C2N1CCN(C)CC1 [2-methyl-4-(4-methyl-1-piperazinyl)-10H-thieno-[2,3b][1,5]benzodiazepine]	–	–	–	–	–	–	can be detected in the saliva
Cc1cc2c(s1)Nc1ccccc1N=C2N1CCN(C)CC1 [anhydrous Form II 2-methyl-4-(4-methyl-1-piperazinyl)-10H-th] [2-methyl-4-(4-methyl-1-piperazinyl)-10H-thieno[2,3-b][1,5]benzodiazepine]	–	–	–	–	–	metastable	–
